Patent US9550796B2, “Pyrrolopyrrolone derivatives and their use as BET inhibitors” (NOVARTIS AG, priority 2013, dated 2017)

Assays:
[1] = molecular target: BRD4 (Homo sapiens (Human), UniProt O60885); test: TR-FRET in-vitro binding assay for BRD4; conditions: 45 nM His-Brd4(44-477), acetyl-histone H4 (AcK 5, 8, 12, 16) peptide
Outline: (§1)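 TR-FRET binding read after 35 min incubation at 30° C. Compounds dispensed from 90% DMSO solutions and tested at 8 concentrations in a 13.55 μL total reaction volume.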

[2] = molecular target: BRD2 (Homo sapiens (Human), UniProt P25440); test: TR-FRET in-vitro binding assay for BRD2; conditions: 45 nM His-Brd2(60-472), acetyl-histone H4 (AcK 5, 8, 12, 16) peptide
Sequence of BRD2 (P25440 60-472): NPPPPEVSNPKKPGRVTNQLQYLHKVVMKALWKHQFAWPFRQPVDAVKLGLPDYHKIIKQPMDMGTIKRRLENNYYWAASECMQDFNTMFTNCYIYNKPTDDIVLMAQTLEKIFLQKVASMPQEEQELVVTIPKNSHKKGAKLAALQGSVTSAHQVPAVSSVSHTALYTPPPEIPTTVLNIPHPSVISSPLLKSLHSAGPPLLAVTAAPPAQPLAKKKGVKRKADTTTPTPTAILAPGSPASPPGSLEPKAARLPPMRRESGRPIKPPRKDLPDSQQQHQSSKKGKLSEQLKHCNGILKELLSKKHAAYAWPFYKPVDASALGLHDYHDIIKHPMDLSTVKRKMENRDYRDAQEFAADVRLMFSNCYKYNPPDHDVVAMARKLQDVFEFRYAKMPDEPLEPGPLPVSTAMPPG
Outline: as §1

[3] = molecular target: BRD3 (Homo sapiens (Human), UniProt Q15059); test: TR-FRET in-vitro binding assay for BRD3; conditions: 45 nM His-Brd3(20-477), acetyl-histone H4 (AcK 5, 8, 12, 16) peptide
Sequence of BRD3 (Q15059 20-477): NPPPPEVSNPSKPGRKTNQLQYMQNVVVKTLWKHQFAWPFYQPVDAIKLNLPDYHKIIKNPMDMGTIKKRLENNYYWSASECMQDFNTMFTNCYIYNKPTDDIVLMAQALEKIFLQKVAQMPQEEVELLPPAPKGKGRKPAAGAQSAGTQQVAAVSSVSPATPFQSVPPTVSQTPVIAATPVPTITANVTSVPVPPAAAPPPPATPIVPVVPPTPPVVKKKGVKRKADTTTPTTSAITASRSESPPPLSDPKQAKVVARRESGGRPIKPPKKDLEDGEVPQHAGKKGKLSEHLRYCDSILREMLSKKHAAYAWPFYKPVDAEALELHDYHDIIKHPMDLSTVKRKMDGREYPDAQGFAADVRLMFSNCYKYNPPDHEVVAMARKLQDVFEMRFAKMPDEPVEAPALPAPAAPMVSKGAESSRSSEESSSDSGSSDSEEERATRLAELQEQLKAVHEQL
Outline: as §1

[4] = molecular target: CREBBP (Homo sapiens (Human), UniProt Q92793); test: AlphaScreen in-vitro binding assay for CREBBP; conditions: 324 nM His-CREBBP (1081-1197), acetyl-histone H4 (AcK 5, 8, 12) peptide
Sequence of CREBBP (Q92793 1081-1197): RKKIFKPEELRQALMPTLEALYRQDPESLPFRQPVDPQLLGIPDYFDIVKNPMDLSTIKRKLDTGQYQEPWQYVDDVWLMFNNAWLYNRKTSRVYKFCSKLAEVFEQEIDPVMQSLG
Outline: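 IC50 values were derived by non-linear regression of percent inhibition across 8 compound concentrations. Protein was His-tagged CREBBP bromodomain (1081-1197), peptide acetyl-histone H4 (AcK 5, 8, 12), in HEPES pH 7.5 buffer. Read-out was AlphaScreen with Ni-chelate acceptor and streptavidin donor beads, 35 min at 30° C then 60 min at RT.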

[5] = system: MV-4-11; test: Cell growth inhibition assay (CellTiter-Glo), MV-4-11; assay type: cell-based, human; conditions: MV-4-11 cells, 4 days; for GI50: Homo sapiens, MV4-11, 96 h, half-maximal growth inhibition; for MV-4-11 TGI: total growth inhibition
Outline: (§2)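 ATP content was quantified with CellTiter-Glo after 4-day compound treatment (top 10 μM, 3-fold steps) at 37 °C. Readings were background- and day-0-corrected, scaled so vehicle equals 100% and medium equals −100%. Four-parameter fits gave half-maximal (IC50) and total growth inhibition concentrations.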

[6] = system: THP-1; test: Cell growth inhibition assay (CellTiter-Glo), THP-1; assay type: cell-based, human; conditions: THP-1 cells, 4 days; for GI50: Homo sapiens, 96 h, half-maximal growth inhibition; for THP-1 TGI: total growth inhibition
Outline: as §2

[7] = system: K-562; test: Cell growth inhibition assay (CellTiter-Glo), K-562; assay type: cell-based, human; conditions: K-562 cells, 4 days; for GI50: Homo sapiens, K562, 96 h, half-maximal growth inhibition; for K-562 TGI: total growth inhibition
Outline: as §2

SMILES | IC50 [1] [nM] | IC50 [2] [nM] | IC50 [3] [nM] | IC50 [4] [µM] | GI50 [5] [nM] | GI50 [6] [nM] | GI50 [7] [nM] | MV-4-11 TGI [5] [µM] | THP-1 TGI [6] [µM] | K-562 TGI [7] [µM]
Cc1cn(C)c2c1C(=O)N(c1cc(C)c3nnn(C)c3n1)C2c1ccc(Cl)cc1 (stereo not drawn) [Example 32, 6-(4-chlorophenyl)-5-(3,7-dimethyl-3H-[1,2,3]triazolo[4,5-b]pyridin-5-yl)-1,3-dimethyl-5,6-dihydropyrrolo[3,4-b]pyrrol-4(1H)-one] | 110 | 160 | 100 | > 37 | 111 | 174 | 430 | 0.2035 | 0.343 | >10
COCCn1cc(C)c2c1C(c1ccc(Cl)cc1)N(c1cc(C)c3nnc(C)n3c1)C2=O (stereo not drawn) [Example 13, 6-(4-chlorophenyl)-5-(3,8-dimethyl-[1,2,4]triazolo[4,3-a]pyridin-6-yl)-1-(2-methoxyethyl)-3-methyl-5,6-dihydropyrrolo[3,4-b]pyrrol-4(1H)-one] | 62 | 71 | 67 | 13.7 | 12.7 | 17.6 | 73.6 | 0.02485 | 0.0389 | >10
Cc1cc(N2C(=O)c3ccn(C)c3C2c2ccc(Cl)c(F)c2)cn(C)c1=O (stereo not drawn) [Example 80, 6-(4-chloro-3-fluorophenyl)-5-(1,5-dimethyl-6-oxo-1,6-dihydropyridin-3-yl)-1-methyl-5,6-dihydropyrrolo[3,4-b]pyrrol-4(1H)-one] | 154 | 292 | 147 | 1.5 | 148 | 146 | 455 | 0.267 | 0.3695 | >10
Cc1ccc(C2c3c(ccn3C)C(=O)N2c2cc(C)c(=O)n(C)c2)cc1 (stereo not drawn) [Example 81, 5-(1,5-dimethyl-6-oxo-1,6-dihydropyridin-3-yl)-1-methyl-6-(p-tolyl)-5,6-dihydropyrrolo[3,4-b]pyrrol-4(1H)-one] | 131 | 126 | 81.2 | 4.5 | 79.8 | 149 | 721 | 0.121 | 0.3 | >10
Cc1ccc(C2c3c(ccn3C)C(=O)N2c2cc(Cl)c(=O)n(C)c2)cc1 (stereo not drawn) [Example 87, 5-(5-chloro-1-methyl-6-oxo-1,6-dihydropyridin-3-yl)-1-methyl-6-(p-tolyl)-5,6-dihydropyrrolo[3,4-b]pyrrol-4(1H)-one] | 120 | 108 | 76.3 | 4.1 | 75.3 | 83.9 | 266 | 0.151 | 0.255 | >10
Cn1ccc2c1C(c1ccc(C#N)cc1)N(c1cc(Cl)c(=O)n(C)c1)C2=O (stereo not drawn) [Example 89, 4-(5-(5-chloro-1-methyl-6-oxo-1,6-dihydropyridin-3-yl)-1-methyl-4-oxo-1,4,5,6-tetrahydropyrrolo[3,4-b]pyrrol-6-yl)benzonitrile] | 357 | 230 | 210 | 10.7 | 402 | 598 | 1910 | 0.785 | 2.015 | >10

Stronger by IC50 [1], values ahead:

IC50 [1] [nM] | IC50 [2] [nM] | IC50 [3] [nM] | IC50 [4] [µM] | GI50 [5] [nM] | GI50 [6] [nM] | GI50 [7] [nM] | SMILES | MV-4-11 TGI [5] [µM] | THP-1 TGI [6] [µM] | K-562 TGI [7] [µM]
60 | 78 | 52 | 4 | 70 | 136 | 839 | Cc1cc(N2C(=O)c3cc(-c4cccnc4O)[nH]c3C2c2ccc(Cl)cc2)cn2c(C)nnc12 (stereo not drawn) [Example 26, 6-(4-chlorophenyl)-5-(3,8-dimethyl-[1,2,4]triazolo[4,3-a]pyridin-6-yl)-2-(2-hydroxypyridin-3-yl)-5,6-dihydropyrrolo[3,4-b]pyrrol-4(1H)-one] | 0.1185 | 0.34 | >10
17 | 40 | 23 | 6 | 6.74 | 10.6 | 50.5 | Cc1cn(C2COC2)c2c1C(=O)N(c1cc(C)c3nnc(C)n3c1)C2c1ccc(Cl)cc1 (stereo not drawn) [Example 6, 6-(4-chlorophenyl)-5-(3,8-dimethyl-[1,2,4]triazolo[4,3-a]pyridin-6-yl)-3-methyl-1-(oxetan-3-yl)-5,6-dihydropyrrolo[3,4-b]pyrrol-4(1H)-one] | 0.0214 | 0.02925 | >10
47 | 82 | 53 | 5.1 | 45.2 | 63.3 | 246 | Cc1cc(N2C(=O)c3cc[nH]c3C2c2ccc(Cl)cc2)cn2c(C)nnc12 (stereo not drawn) [Example 21, 6-(4-chlorophenyl)-5-(3,8-dimethyl-[1,2,4]triazolo[4,3-a]pyridin-6-yl)-5,6-dihydropyrrolo[3,4-b]pyrrol-4(1H)-one] | 0.08105 | 0.178 | >10
52 | 85 | 39 | 4.2 | 29 | 39.2 | 206 | CNC(=O)n1ccc2c1C(c1ccc(Cl)cc1)N(c1cc(C)c3nnc(C)n3c1)C2=O (stereo not drawn) [Example 23, 6-(4-chlorophenyl)-5-(3,8-dimethyl-[1,2,4]triazolo[4,3-a]pyridin-6-yl)-N-methyl-4-oxo-5,6-dihydropyrrolo[3,4-b]pyrrole-1(4H)-carboxamide] | 0.0547 | 0.1017 | >10
16 | 34 | 26 | > 37 | 31.4 | 34.9 | 123 | Cc1cc(N2C(=O)c3c(NC(=O)OC(C)(C)C)cn(C)c3C2c2ccc(Cl)cc2)nc2c1nnn2C (stereo not drawn) [Example 95, Tert-butyl (6-(4-chlorophenyl)-5-(3,7-dimethyl-3H-[1,2,3]triazolo[4,5-b]pyridin-5-yl)-1-methyl-4-oxo-1,4,5,6-tetrahydropyrrolo[3,4-b]pyrrol-3-yl)carbamate] | 0.0631 | 0.0815 | >10
16 | 20 | 21 | 1.9 | 12.8 | 19.2 | 55.6 | Cc1cn(C)c2c1C(=O)N(c1cc(C)c3nnn(C)c3c1)C2c1ccc(Cl)cc1 (stereo not drawn) [Example 28, 6-(4-chlorophenyl)-5-(1,4-dimethyl-1H-benzo[d][1,2,3]triazol-6-yl)-1,3-dimethyl-5,6-dihydropyrrolo[3,4-b]pyrrol-4(1H)-one] | 0.02635 | 0.03815 | >10
< 11 | < 11 | < 11 | 4.1 | 11.1 | 43.3 | 230 | CC(=O)N1CC(n2cc(C3CC3)c3c2C(c2ccc(Cl)cc2)N(c2cc(C)c4nnc(C)n4c2)C3=O)C1 (stereo not drawn) [Example 17, 1-(1-acetylazetidin-3-yl)-6-(4-chlorophenyl)-3-cyclopropyl-5-(3,8-dimethyl-[1,2,4]triazolo[4,3-a]pyridin-6-yl)-5,6-dihydropyrrolo[3,4-b]pyrrol-4(1H)-one] | 0.03485 | 0.168 | >10
25 | 38 | 26 | 12.5 | 46.8 | 60.1 | 226 | CCOC(=O)n1ccc2c1C(c1ccc(Cl)cc1)N(c1cc(C)c3nnc(C)n3c1)C2=O (stereo not drawn) [Example 22, Ethyl 6-(4-chlorophenyl)-5-(3,8-dimethyl-[1,2,4]triazolo[4,3-a]pyridin-6-yl)-4-oxo-5,6-dihydropyrrolo[3,4-b]pyrrole-1(4H)-carboxylate] | 0.08615 | 0.13 | >10
38 | 39 | 50 | 7.3 | 18.7 | 26 | 113 | CCOC(=O)n1cc(C)c2c1C(c1ccc(Cl)cc1)N(c1cc(C)c3nnc(C)n3c1)C2=O (stereo not drawn) [Example 11, Ethyl 6-(4-chlorophenyl)-5-(3,8-dimethyl-[1,2,4]triazolo[4,3-a]pyridin-6-yl)-3-methyl-4-oxo-5,6-dihydropyrrolo[3,4-b]pyrrole-1(4H)-carboxylate] | 0.03155 | 0.05895 | >10
